# Assay results from PubChem BioAssay (NCI).
#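 The compound was tested at five concentrations on cells cultured in 96-well plates, with a 48-hour exposure period. GI50 is the concentration that inhibits growth by half. TGI marks complete inhibition of growth.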
# What was measured:
# Assay in all cases: DTP human tumour cell line panel, 48 h
# [1] = system: SK-MEL-5 melanoma
# [2] = system: HS 578T breast
# [3] = system: SK-MEL-28 melanoma
# [4] = system: MCF7 breast
# [5] = system: K-562 leukemia
# [6] = system: SF-295 CNS
# [7] = system: U251 CNS
# [8] = system: HCT-15 colon
# [9] = system: SK-OV-3 ovarian
# [10] = system: SNB-19 CNS
# [11] = system: ACHN renal
# [12] = system: SR leukemia
# [13] = system: SF-268 CNS
# [14] = system: LOX IMVI melanoma
# [15] = system: CCRF-CEM leukemia
# [16] = system: NCI-H23 lung
# [17] = system: MDA-MB-435
# [18] = system: OVCAR-5 ovarian
# [19] = system: MOLT-4 leukemia
# [20] = system: SF-539 CNS
# [21] = system: SN12C renal
# [22] = system: UO-31 renal
# [23] = system: TK-10 renal
# [24] = system: MDA-MB-231 breast
# [25] = system: M14 melanoma
# [26] = system: SNB-75 CNS
# [27] = system: A498 renal
# [28] = system: RPMI-8226 leukemia
# [29] = system: MALME-3M melanoma
# [30] = system: A549 NSCLC
# [31] = system: SK-MEL-2 melanoma
# [32] = system: HCC-2998 colon
# [33] = system: NCI-H226 lung
# [34] = system: CAKI-1 renal
# [35] = system: EKVX NSCLC
# [36] = system: NCI-H460 lung
# [37] = system: HOP-92 NSCLC
# [38] = system: OVCAR-3 ovarian
# [39] = system: HL-60(TB) leukemia
# [40] = system: SW-620 colon
# [41] = system: HT29 colon
# [42] = system: DU-145 prostate
# [43] = system: IGROV1 ovarian
# [44] = system: KM12 colon
# [45] = system: 786-0 renal
# [46] = system: NCI/ADR-RES ovarian
# [47] = system: COLO 205 colon
# [48] = system: HCT-116 colon
# [49] = system: T-47D breast
# [50] = system: OVCAR-4 ovarian
# [51] = system: UACC-62 melanoma
# [52] = system: PC-3 prostate
# [53] = system: NCI-H522 lung
# [54] = system: HOP-62 NSCLC
smiles,measurement,setting,value
COc1ccccc1N1CCN(CCCn2c(=O)c3c(OC)nc(C)cc3c(=O)n2-c2ccccc2)CC1,GI50,[1],> 100 µM
same,TGI,[1],> 100 µM
same,GI50,[2],> 100 µM
same,TGI,[2],> 100 µM
same,GI50,[3],> 100 µM
same,TGI,[3],> 100 µM
same,GI50,[4],> 100 µM
same,TGI,[4],> 100 µM
same,GI50,[5],> 100 µM
same,TGI,[5],> 100 µM
same,GI50,[6],> 100 µM
same,TGI,[6],> 100 µM
same,GI50,[7],> 100 µM
same,TGI,[7],> 100 µM
same,GI50,[8],> 100 µM
same,TGI,[8],> 100 µM
same,GI50,[9],> 100 µM
same,TGI,[9],> 100 µM
same,GI50,[10],> 100 µM
same,TGI,[10],> 100 µM
same,GI50,[11],> 100 µM
same,TGI,[11],> 100 µM
same,GI50,[12],> 100 µM
same,TGI,[12],> 100 µM
same,GI50,[13],> 100 µM
same,TGI,[13],> 100 µM
same,GI50,[14],> 100 µM
same,TGI,[14],> 100 µM
same,GI50,[15],> 100 µM
same,TGI,[15],> 100 µM
same,GI50,[16],> 100 µM
same,TGI,[16],> 100 µM
same,GI50,[17],> 100 µM
same,TGI,[17],> 100 µM
same,GI50,[18],> 100 µM
same,TGI,[18],> 100 µM
same,GI50,[19],> 100 µM
same,TGI,[19],> 100 µM
same,GI50,[20],> 100 µM
same,TGI,[20],> 100 µM
same,GI50,[21],> 100 µM
same,TGI,[21],> 100 µM
same,GI50,[22],> 100 µM
same,TGI,[22],> 100 µM
same,GI50,[23],> 100 µM
same,TGI,[23],> 100 µM
same,GI50,[24],> 100 µM
same,TGI,[24],> 100 µM
same,GI50,[25],> 100 µM
same,TGI,[25],> 100 µM
same,GI50,[26],> 100 µM
same,TGI,[26],> 100 µM
same,GI50,[27],> 100 µM
same,TGI,[27],> 100 µM
same,GI50,[28],> 100 µM
same,TGI,[28],> 100 µM
same,GI50,[29],> 100 µM
same,TGI,[29],> 100 µM
same,GI50,[30],> 100 µM
same,TGI,[30],> 100 µM
same,GI50,[31],> 100 µM
same,TGI,[31],> 100 µM
same,GI50,[32],> 100 µM
same,TGI,[32],> 100 µM
same,GI50,[33],> 100 µM
same,TGI,[33],> 100 µM
same,GI50,[34],> 100 µM
same,TGI,[34],> 100 µM
same,GI50,[35],> 100 µM
same,TGI,[35],> 100 µM
same,GI50,[36],> 100 µM
same,TGI,[36],> 100 µM
same,GI50,[37],> 100 µM
same,TGI,[37],> 100 µM
same,GI50,[38],> 100 µM
same,TGI,[38],> 100 µM
same,GI50,[39],> 100 µM
same,TGI,[39],> 100 µM
same,GI50,[40],> 100 µM
same,TGI,[40],> 100 µM
same,GI50,[41],> 100 µM
same,TGI,[41],> 100 µM
same,GI50,[42],> 100 µM
same,TGI,[42],> 100 µM
same,GI50,[43],> 100 µM
same,TGI,[43],> 100 µM
same,GI50,[44],> 100 µM
same,TGI,[44],> 100 µM
same,GI50,[45],> 100 µM
same,TGI,[45],> 100 µM
same,GI50,[46],> 100 µM
same,TGI,[46],> 100 µM
same,GI50,[47],> 100 µM
same,TGI,[47],> 100 µM
same,GI50,[48],> 100 µM
same,TGI,[48],> 100 µM
same,GI50,[49],> 100 µM
same,TGI,[49],> 100 µM
same,GI50,[50],> 100 µM
same,TGI,[50],> 100 µM
same,GI50,[51],> 100 µM
same,TGI,[51],> 100 µM
same,GI50,[52],> 100 µM
same,TGI,[52],> 100 µM
same,GI50,[53],> 100 µM
same,TGI,[53],> 100 µM
same,GI50,[54],> 100 µM
same,TGI,[54],> 100 µM
